Counter-ions that a name gives are not always drawn. Where only a bound is given, the exact number is not on record here.

In test [1] the test system is CT26 cells. In words: Inhibition of proliferation of CT26 cells (CellTiter-Glo). In kind it is cell-based, mouse. The note with it: Mus musculus, 120 hours, CellTiter-Glo. The procedure:
CT26 cell is a mouse colorectal cancer cell line. This assay used the CellTiter-Glo Luminescence Cell Vitality Assay kit from Promega to evaluate the inhibitory activity of the compounds on the proliferation of CT26 cells.
In thawing the CT26 cells (ATCC #CRL-2638), a cell freezing tube was quickly shaken in a water bath at 37° C. to thaw the cells within 1 min. The thawed cell suspension was taken and evenly mixed with DMEM medium (GE, Cat #SH30243.01) containing 10% FBS (GIBCO, Cat #10099-141), centrifuged for 5 min at 1000 rpm, and the supernatant was discarded. The cell pellet was resuspended in 5 mL of the complete medium (DMEM medium containing 10% FBS), placed into a cell culture flask with a bottom area of 25 cm^2, and incubated in a cell incubator at 37° C., 5% CO2 and 95% humidity. When the cell confluence reached 70%˜80%, the cells were passaged. All the cells in the culture flask were transferred to a 15 mL centrifuge tube, centrifuged for 5 min at 1000 rpm, and the supernatant was discarded. 5 mL of fresh complete medium was added to re-suspend the cell pellet, 1 mL of which was taken to place in a cell culture flask with a bottom area of 25 cm^2, supplemented with 4 mL of fresh complete medium for further incubation. When the cell confluence reached 70%-80% again, plating was conducted following the procedure of cell passage, retaining 1/5 cell suspension for further inculation and remaining 4/5 of the cell suspension in a 15 mL centrifuge tube.
The cell suspension was centrifuged to discard the old culture medium, washed once using DMEM medium (serum-free), and centrifuged to remove the supernatant. The cells were then re-suspended in DMEM medium (serum-free). Cell viability was then detected by Trypan blue exclusion test and to be used for plating when the cell viability was confirmed to be more than 95%. A cell suspension with a density of 1.1×10^4 viable cells/mL was prepared using DMEM medium (serum-free), and 90 μL of the cell suspension was added to a 96-well 96-well transparent flat-bottomed black-walled cell culture plate (Corning, Cat #3603) so that the cell density in the plate was 1000 viable cells/well. A control group containing no cells, no compound, and complete medium only (i.e., a culture medium control), and a control group containing no compound but cells (i.e., a cell control) were set. The cell plates were placed in a cell incubator overnight.
(§1) A 10 mM stock solution of the compounds in DMSO was first serially diluted at 3.16-fold with DMSO (Sigma, Cat #D2650) to the 9th concentration, and the 10th concentration was set as DMSO control (compound-free). Then, the DMSO solutions containing different concentrations of the compounds were diluted at 10-fold with PBS (Solarbio, Cat #P1020) so that the DMSO content in each compound solution of various concentrations was 10%. Finally, 10 μL of each of such solutions was added into corresponding cell culture plate to provide an initial compound concentration of 100 μM, with the dilution fold of adjacent concentrations being 3.16 and the DMSO content in the cell culture plate being 1%. The cell plate was placed in a cell incubator for further 120 hours.
After 120 hours, the CellTiter-Glo reagent (Promega, Cat #G7572) was thawed and the plates were equilibrated at room temperature for 30 min. 100 uL of CellTiter-Glo was added to each well of the plate, and the cells were lysed thoroughly by shaking on an orbital shaker for 5 min. The plates were placed at room temperature for 20 min to stabilize the luminescence signal, and the luminescence value of each well was scanned at full wavelength with a multifunctional microplate reader (Molecular Devices, Spectramax M3). […]
For orientation: In ATP-based viability assays light output follows the ATP content of the culture.

For test [2], the system named is IFN-β secretion by THP-1 cells. In words: Activation of IFN-β secretion by THP-1 cells (Human IFN-beta ELISA). In kind it is cell-based. Conditions: for EC50 / Activating effect on IFN-β secretion / STING agonist activity (in words): THP-1 cells; for EC50: 24 hours, IFN-β ELISA; for Activating effect on IFN-β secretion / STING agonist activity (in words): EC50 compared with 2′,3′-cGAMP and ADU-S100. How it is done: THP-1 cell, a human monocytic leukemia cell line, has the STING phenotype of HAQ type, i.e., R71H-G230A-R293Q. This assay used the Human IFN-beta DuoSet ELISA Kit from R & D (R & D, Cat #DY814-05) and the DuoSet ELISA Ancillary Reagent Kit 2 (R & D, Cat #DY008) to evaluate the activation of IFN-β secretion from THP-1 cells by representative compounds of the invention.
In thawing the THP-1 cells (ATCC #TIB-202), a cell freezing tube was quickly shaken in a water bath at 37° C. to thaw the cells within 1 min. The thawed cell suspension was taken and evenly mixed with an RPMI1640 medium (Hyclone, product #SH30027.01) containing 10% FBS (Life Technology, Cat #10099-141), centrifuged for 5 min at 1000 rpm, and the supernatant was discarded. The cell pellet was resuspended in 5 mL of the complete medium (RPMI 1640 medium containing 10% FBS), placed into a cell culture flask with a bottom area of 25 cm^2, and incubated in a cell incubator at 37° C., 5% CO2 and 95% humidity. When the cell confluence reached about 80%, the cells were passaged. All the cells in the culture flask were transferred to a 15 mL centrifuge tube, centrifuged for 5 min at 1000 rpm, and the supernatant was discarded. 5 mL of fresh complete medium was added to re-suspend the cell pellet, 1 mL of which was taken to place in a cell culture flask with a bottom area of 25 cm^2, supplemented with 4 mL of fresh complete medium for further incubation. When the cell confluence reached about 80% again, plating was conducted following the procedure of cell passage, retaining 1/5 cell suspension for further inculation and remaining 4/5 of the cell suspension in a 15 mL centrifuge tube. The cell suspension was centrifuged to discard the old culture medium, washed once using RPMI1640 culture medium (serum-free), and centrifuged to remove the supernatant. The cells were then re-suspended in RPMI1640 culture medium (serum-free). Cell viability was then detected by Trypan blue exclusion test and to be used for plating when the cell viability was confirmed to be more than 95%. A cell suspension with a density of 1.1×10^6 viable cells/mL was prepared using RPMI1640 culture medium (serum-free), and 180 μL of the cell suspension was added to a 96-well cell culture plate (NUNC Company, Cat #167008) so that the cell density in the plate was 2×10^5 viable cells/well.
as §1, with “the 5th” for “the 9th”, “the 6th” for “the 10th”, “PBS” for “PBS (Solarbio, Cat #P1020)”, “Finally, 20” for “Finally, 10”, “further 24” for “further 120”
ELISA detection was conducted referring to the instructions from R & D System, Cat #DY814-05.
ELISA plate coating: PBS (R & D System Cat #DY006) was used to dilute the capture antibody (mouse anti-human IFN-β capture antibody PART #844508) to provide the working concentration, and 100 μL capture antibody working solution was added to a 96-well ELISA plate which was then sealed and incubated overnight at room temperature. Upon discarding the capture antibody working solution, the cell plate was washed 3 times with a washing buffer (0.05% Tween-20 in PBS, pH 7.2-7.4, R & D System Cat #WA126) at 400 μL of the washing buffer per well, and the washing buffer was thoroughly removed after each washing, with the final washing to be completely removed of the wash buffer by inverting and claping the plate to a clean piece of paper. […]
On the technique in general: An ELISA detects its analyte on a solid surface through an enzyme-linked reagent.

In test [3] the test system is CT26 cells. In words: Anti-tumor activity in bilateral transplantation tumor model of CT26 syngeneic mouse. The note with it: Day 13 post-dose; 50 μg/mouse intratumorally right side, Day 0 and Day 4. In kind it is in vivo, BALB/c mice. The procedure: BALB/c mice of 6-8 weeks (purchased from Shanghai Ling Chang Biotech Co., Ltd.) were inoculated with 5×10^5 CT26 cells (supplied by Taicang Zexin Biotechnology Co., Ltd., ATCC #CRL-2638) subcutaneously on the left and right back dorsal, respectively, and the inoculation volume was 0.1 mL/side. When tumors grew to an average volume of 100 mm^3, they were randomized according to tumor size and mouse body weight and dosing was initiated. The day of the first dose was Day 0.
Two doses were administered on Day 0 and Day 4, with 50 μg of compound/mouse (i.e., 2.5 mg/kg) injected intratumorally right side, with the same volume of PBS (Hyclone, Cat #SH30258.01) as a control. The tumor on the left side was not treated. The control mice were sacrificed 13 days and the treated mice were sacrificed 21 days, after dosing. During the experiment, tumor volumes on the left and right sides and the body weights were measured 3 times per week, and the tumor volume was calculated as V=D×d×d/2 (where D represents length of tumor and d represents width of tumor).

For orientation: IC50 means the concentration that inhibits the measured activity by half. A higher IC50 goes with weaker potency in that assay. The term EC50 denotes the midpoint of the concentration-response curve. `Nc1nc2c(ncn2[C@@H]2O[C@@H]3CO[P@@](=O)(S)OC4C(F)[C@H](n5cnc6c(N)nc(Cl)nc65)O[C@@H]4CO[P@](=O)(S)OC3C2O)c(=O)[nH]1` (stereo partly drawn) [Example 16, (3′,3′)-cyclo-(Rp,Rp)-[3′-O-phosphorothioate-diester-guanosine]-[3′-O-phosphorothioate-diester-2-chloro-2′-deoxy-2′-fluoro-beta-adenosine] diammonium salt]: the IC50 in test [1] lay within 1 to 10 µM. The EC50 in test [2] (diammonium salt) lay in the range of 1 to 10 µM. In test [2], the “Activating effect on IFN-β secretion / STING agonist activity (in words)” value was “significant STING agonist activity”. Besides, the “Highest concentration of IFN-β secreted by stimulated THP-1 cells” value in test [2] (compared with ADU-S100) is listed as “higher than that of ADU-S100”. Besides, the “Growth inhibition rate, untreated left tumor” value in test [3] was 71.7%.

The compound `Nc1nc2c(ncn2[C@@H]2O[C@@H]3CO[P@@](=O)(S)OC4C[C@H](n5cnc6c(N)nc(Cl)nc65)O[C@@H]4CO[P@@](=O)(S)OC2C3O)c(=O)[nH]1` (stereo partly shown) [Example 12, (2′,3′)-cyclo-(Rp,Rp)-[2′-O-phosphorothioate-diester-guanosine]-[3′-O-phosphorothioate-diester-2-chloro-2′-deoxy-adenosine] diammonium salt] displayed an IC50 in test [1] of 1 to 10 µM. Also, the EC50 in test [2] (Homo sapiens, THP-1, 24 h) fell in the range of 1 to 10 µM. In test [2], the “Activating effect on IFN-β secretion / STING agonist activity (in words)” value is reported as “significant STING agonist activity”. In addition, in test [3], the “Growth inhibition rate, untreated left tumor” value is 75.3%.

Turning to `Nc1nc(Cl)nc2c1ncn2[C@@H]1O[C@@H]2CO[P@@](=O)(S)OC3C(O)[C@@H](CO[P@@](=O)(S)OC2C1F)O[C@H]3n1cnc2c(N)ncnc21` (stereo partly drawn) [Example 5, (2′,3′)-cyclo-(Rp,Rp)-[2′-O-phosphorothioate-diester-adenosine]-[3′-O-phosphorothioate-diester-2-chloro-2′-deoxy-2′-fluoro-beta-adenosine] diammonium salt], in test [1], the 50% inhibitory concentration (IC50) fell in the range of 1 to 10 µM. In test [2] (Homo sapiens, THP-1, 24 h), this compound showed a concentration giving a half-maximal response (EC50) of 10.1 to 100 µM.

`Nc1ccn([C@@H]2O[C@@H]3CO[P@@](=O)(S)O[C@H]4C(O)[C@@H](CO[P@@](=O)(S)O[C@@H]3C2(F)F)O[C@H]4n2cnc3c(=O)[nH]c(N)nc32)c(=O)n1` (stereo partly shown) [Example 13, (2′,3′)-cyclo-(Rp,Rp)-[2′-O-phosphorothioate-diester-guanosine]-[3′-O-phosphorothioate-diester-2′-deoxy-2′,2′-difluorocytidine]diammonium salt] returned an IC50 in test [1] of less than 1 µM. The same compound showed a 50% effective concentration (EC50) in test [2] (Homo sapiens, THP-1, 24 h) of 10.1 to 100 µM.

Values taken from US20240059729A1, “MULTIFUNCTIONAL CYCLIC DINUCLEOTIDE AND USE THEREOF” (TYLIGAND BIOSCIENCE (SHANGHAI) LIMITED, priority 2020, published 2024).
